# Results from patent US20240058443A1, “PREVENTION OR MITIGATION OF NK CELL ENGAGING AGENT-RELATED ADVERSE EFFECTS” (Hoffmann-La Roche Inc., priority 2021, published 2024).
# Assays:
# CD19+ B cell = assay: Whole blood assay: obinutuzumab-induced B cell depletion measured by flow cytometry; assay type: cell-based; conditions: for B cell depletion induced by obinutuzumab: 100 nM inhibitor, fresh whole blood, obinutuzumab 100 to 0.1 μg/mL, 48 hours, FIG. 1; for target cell killing mediated by NK cell engaging antibody: summary statement of the description, no conditions given
# Procedure: FIG. 1. Effect of 100 nM ruxolitinib (ruxo), 100 nM sirolimus (siro), 100 nM dasatinib (dasa) on obinutuzumab-induced CD19^+ B cell depletion in a whole blood assay. Fresh whole blood was incubated with 100, 10, 1 and 0.1 μg/mL obinutuzumab or PGLALA IgG in the presence and absence of 100 nM ruxolitinib, 100 nM sirolimus and 100 nM dasatinib for 48 hours. The PGLALA IgG has a silent Fc region and is a negative control. At 48 hours, blood was collected and lysed and the percentage of CD19^+ B cell among live cells was measured by flow cytometry. Mean of n=2 donors.
# (§1) The CD20-targeting, effector-enhanced antibody obinutuzumab (Gazyva®) depletes B cells via FcγR signaling, and can be associated with a risk of infusion reaction characterized by cytokine release induced via FcγR signaling. To assess whether the mTOR inhibitor sirolimus, the JAK1/2 inhibitor ruxolitinib and the Src inhibitor dasatinib can prevent cytokine release induced via FcγR signaling, a whole blood assay using escalating doses of obinutuzumab in the presence and absence of sirolimus, ruxolitinib and dasatinib was conducted. A corresponding anti-CD20 IgG with a silent Fc portion (comprising “PGLALA” mutations L234A, L235A, P329G (Kabat EU numbering)) was used as a negative control (“PGLALA IgG”). In this assay, fresh whole blood is incubated together with concentrations of obinutuzumab ranging from 100 μg/mL to 0.1 μg/mL in the presence and absence of 100 nM sirolimus, 100 nM ruxolitinib and 100 nM dasatinib. To assess the impact of the different kinase inhibitors on cytokine release, serum was collected at 24 hours and cytokines were analyzed by Luminex. To assess the impact of the different kinase inhibitors on B cell depletion, blood was lysed at 48 hours and B cell depletion was measured by flow cytometry.
# [1] = tested on: cytokine release induced via FcγR signaling; assay: Whole blood assay: obinutuzumab-induced cytokine release, serum cytokines analyzed by Luminex; assay type: cell-based; conditions: for levels of IFN-γ: FIG. 2A; for levels of TNF-α: FIG. 2C; for levels of MCP-1: FIG. 2F; for cytokine release: overall statement, whole blood, obinutuzumab; for cytokine release induced by an NK cell engaging antibody: summary statement of the description, no conditions given
# Procedure: FIG. 2. Effect of 100 nM ruxolitinib (ruxo), 100 nM sirolimus (siro), 100 nM dasatinib (dasa) on obinutuzumab-induced IFN-γ (FIG. 2A), IL-2 (FIG. 2B), TNF-α (FIG. 2C), IL-6 (FIG. 2D), IL-8 (FIG. 2E) and MCP-1 (FIG. 2F) for 100, 10, 1 and 0.1 μg/mL obinutuzumab in a whole blood assay. Fresh whole blood was incubated with 100, 10, 1 and 0.1 μg/mL obinutuzumab or PGLALA IgG in the presence and absence of 100 nM ruxolitinib, 100 nM sirolimus and 100 nM dasatinib for 48 hours. The PGLALA IgG has a silent Fc region and is a negative control. At 24 hours, serum was collected and cytokines were analyzed by Luminex. Mean of n=2 donors.
# as §1
# [2] = 100 nM inhibitor, fresh whole blood, obinutuzumab 100 to 0.1 μg/mL, serum at 24 hours
# [3] = 100 nM inhibitor, fresh whole blood, obinutuzumab 100 to 0.1 μg/mL, serum at 24 hours, FIG. 2D, first IL-6 of the list
# [4] = 100 nM inhibitor, fresh whole blood, obinutuzumab 100 to 0.1 μg/mL, serum at 24 hours, second IL-6 of the list
SMILES,B cell depletion induced by obinutuzumab (CD19+ B cell),target cell killing mediated by NK cell engaging antibody (CD19+ B cell),"levels of IFN-γ [1, 2]","levels of IL-2 ([1]; 100 nM inhibitor, fresh whole blood, obinutuzumab 100 to 0.1 μg/mL, serum at 24 hours, FIG. 2B)","levels of TNF-α [1, 2]","levels of IL-6 [1, 3]","levels of MCP-1 [1, 2]","levels of IL-6 [1, 4]","potency in reducing cytokine release among the three classes of kinase inhibitors ([1]; comparison of Src, mTOR and JAK1/2 inhibitor at 100 nM)",cytokine release ([1]; 100 nM inhibitor),cytokine release induced by an NK cell engaging antibody [1]
"Cc1nc(Nc2ncc(C(=O)Nc3c(C)cccc3Cl)s2)cc(N2CCN(CCO)CC2)n1 [dasatinib, N-(2-chloro-6-methylphenyl)-2[[6[4-(2-hydroxyethyl)-1-piperazinyl]-2-methyl-4-pyrimidinyl]amino]-5-thiazole carboxamide monohydrate]",did not prevent,retaining,strongly reduced,strongly reduced,strongly reduced,strongly reduced,strongly reduced,strongly reduced,most potent,reduced cytokine release,potently prevent
"CO[C@H]1C[C@@H]2CC[C@@H](C)[C@@](O)(O2)C(=O)C(=O)N2CCCC[C@H]2C(=O)O[C@H]([C@H](C)C[C@@H]2CC[C@@H](OCCO)[C@H](OC)C2)CC(=O)[C@H](C)/C=C(\C)[C@@H](O)[C@@H](OC)C(=O)[C@H](C)C[C@H](C)/C=C/C=C/C=C/1C [everolimus, Everolimus]",,retaining,,,,,,,,,potently prevent
"N#CC[C@H](C1CCCC1)n1cc(-c2ncnc3[nH]ccc23)cn1 [ruxolitinib, Ruxolitinib]",did not prevent,retaining,reduced,,reduced,reduced,reduced,reduced,,reduced cytokine release,potently prevent
"CO[C@H]1C[C@@H]2CC[C@@H](C)[C@@](O)(O2)C(=O)C(=O)N2CCCC[C@H]2C(=O)O[C@H]([C@H](C)C[C@@H]2CC[C@@H](O)[C@H](OC)C2)CC(=O)[C@H](C)/C=C(\C)[C@@H](O)[C@@H](OC)C(=O)[C@H](C)C[C@H](C)/C=C/C=C/C=C/1C [sirolimus, Sirolimus]",did not prevent,retaining,reduced,,reduced,reduced,reduced,reduced,,reduced cytokine release,potently prevent
"CO[C@H]1C[C@@H]2CC[C@@H](C)[C@@](O)(O2)C(=O)C(=O)N2CCCC[C@H]2C(=O)O[C@H]([C@H](C)C[C@@H]2CC[C@@H](OC(=O)C(C)(CO)CO)[C@H](OC)C2)CC(=O)[C@H](C)/C=C(\C)[C@@H](O)[C@@H](OC)C(=O)[C@H](C)C[C@H](C)/C=C/C=C/C=C/1C [temsirolimus, Temsirolimus]",,retaining,,,,,,,,,potently prevent
